From the OligoGym collection
Several values for one entry are separate records, joined by “and”; a condition that tells them apart may be missing. Equal values may be shown once. After the bases stand the sugars from the 5' end (letter, count) and the backbone: PS all phosphorothioate, else s phosphorothioate and o phosphodiester by linkage. Methylation of C is not given here. e = 2'-O-(2-methoxyethyl) (MOE); k = constrained ethyl (cEt); d = 2'-deoxy (DNA)

Tests used:
SOD1 = settings: ASO
MALAT1 = settings: ASO, A431, 0.005 µM

Sequence: AAACTATACAAATCTTC (sugars e3 k2 d7 k2 e3, PS)
- target mRNA inhibition (SOD1; HepG2, 3 µM): 26%

Sequence: AAATCTTCCAAGTGATC (sugars e2 k2 d9 k2 e2, PS)
- target mRNA inhibition (SOD1; HepG2, 5 µM): 48%

Sequence: AAATTCTGACAAGTTTA (sugars e3 k2 d7 k2 e3, PS)
- target mRNA inhibition (SOD1; HepG2, 3 µM): 21%

Sequence: AACATGGAATCCATGCA (sugars e3 k2 d7 k2 e3, PS)
- target mRNA inhibition (SOD1; HepG2, 3 µM): 10%

Sequence: AAGTCTCCAACATGCCTCTC (sugars e5 d10 e5, PS)
- target mRNA inhibition (SOD1; HepG2, 5 µM): 20% and 6%

Sequence: AAGTGCCATACAGGGTT (sugars e2 k2 d8 k2 e3, PS)
- target mRNA inhibition (SOD1; HepG2, 5 µM): 15%

Sequence: AATACCCATCTGTGATT (sugars e3 k2 d7 k2 e3, PS)
- target mRNA inhibition (SOD1; HepG2, 3 µM): 7%

Sequence: AATCAGTTTCTCACTAC (sugars e2 k2 d8 k2 e3, PS)
- target mRNA inhibition (SOD1; HepG2, 5 µM): 34%

Sequence: AATCCATGCAGGCCTTC (sugars e3 k2 d7 k2 e3, PS)
- target mRNA inhibition (SOD1; HepG2, 3 µM): 13%

Sequence: AATCTTCCAAGTGATCA (sugars e3 k2 d7 k2 e3, PS)
- target mRNA inhibition (SOD1; HepG2, 3 µM): 23%

Sequence: AATGTTTATCAGGATA (sugars ekddddddddekekee, linkages s1 o1 s8 o3 s2)
- target mRNA inhibition (SOD1; A431, 0.12 µM): 10%
- target mRNA inhibition (SOD1; A431, 0.6 µM): 30%
- target mRNA inhibition (SOD1; A431, 3 µM): 51%
- target mRNA inhibition (SOD1; A431, 15 µM): 72%

Sequence: AATGTTTATCAGGATAC (sugars e2 k2 d8 k2 e3, PS)
- target mRNA inhibition (SOD1; HepG2, 0.1875 µM): 51%
- target mRNA inhibition (SOD1; HepG2, 0.75 µM): 79%
- target mRNA inhibition (SOD1; HepG2, 3 µM): 92%
- target mRNA inhibition (SOD1; HepG2, 4 µM): 89%
- target mRNA inhibition (SOD1; HepG2, 12 µM): 96%

Sequence: AATGTTTATCAGGATAC (sugars e2 k2 d9 k2 e2, PS)
- target mRNA inhibition (SOD1; HepG2, 0.1875 µM): 43%
- target mRNA inhibition (SOD1; HepG2, 0.75 µM): 75%
- target mRNA inhibition (SOD1; HepG2, 3 µM): 91%
- target mRNA inhibition (SOD1; HepG2, 4 µM): 90%
- target mRNA inhibition (SOD1; HepG2, 12 µM): 97%

Sequence: AATGTTTATCAGGATACATT (sugars e5 d10 e5, PS)
- target mRNA inhibition (SOD1; HepG2, 5 µM): 54%

Sequence: AATGTTTATTGGGCGAT (sugars e2 k2 d8 k2 e3, PS)
- target mRNA inhibition (SOD1; HepG2, 4 µM): 61%

Sequence: AATGTTTATTGGGCGAT (sugars e2 k2 d9 k2 e2, PS)
- target mRNA inhibition (SOD1; HepG2, 4 µM): 64%

Sequence: AATTACACCACAAGCCA (sugars e2 k2 d9 k2 e2, PS)
- target mRNA inhibition (SOD1; HepG2, 4 µM): 56%

Sequence: ACAAGTTTAATACCCAT (sugars e2 k2 d8 k2 e3, PS)
- target mRNA inhibition (SOD1; HepG2, 5 µM): 58%

Sequence: ACACCACAAGCCAAACG (sugars e2 k2 d8 k2 e3, PS)
- target mRNA inhibition (SOD1; HepG2, 4 µM): 27%

Sequence: ACACCACAAGCCAAACG (sugars e2 k2 d9 k2 e2, PS)
- target mRNA inhibition (SOD1; HepG2, 4 µM): 45%

Sequence: ACACTTTTAAGATTACAGTG (sugars e5 d10 e5, PS)
- target mRNA inhibition (SOD1; HepG2, 5 µM): 15%

Sequence: ACAGCTAGCAGGATAAC (sugars e3 k2 d7 k2 e3, PS)
- target mRNA inhibition (SOD1; HepG2, 3 µM): 20%

Sequence: ACAGGGTTTTTATTCAC (sugars e2 k2 d9 k2 e2, PS)
- target mRNA inhibition (SOD1; HepG2, 5 µM): 47%

Sequence: ACAGTGTTTAATGTTT (sugars kekeddddddddekek, linkages s1 o3 s8 o1 s2)
- target mRNA inhibition (SOD1; A431, 0.12 µM): 0%
- target mRNA inhibition (SOD1; A431, 0.6 µM): 0%
- target mRNA inhibition (SOD1; A431, 3 µM): 0%
- target mRNA inhibition (SOD1; A431, 15 µM): 6%
- target mRNA inhibition (SOD1; HepG2, 0.222 µM): 55%
- target mRNA inhibition (SOD1; HepG2, 0.667 µM): 68%
- target mRNA inhibition (SOD1; HepG2, 2 µM): 78%
- target mRNA inhibition (SOD1; HepG2, 6 µM): 88%

Sequence: ACAGTGTTTAATGTTTA (sugars e2 k2 d8 k2 e3, linkages s1 o2 s9 o2 s2)
- target mRNA inhibition (SOD1; A431, 0.12 µM): 17%
- target mRNA inhibition (SOD1; A431, 0.6 µM): 8%
- target mRNA inhibition (SOD1; A431, 3 µM): 26%
- target mRNA inhibition (SOD1; A431, 15 µM): 37%
- target mRNA inhibition (SOD1; HepG2, 0.222 µM): 61%
- target mRNA inhibition (SOD1; HepG2, 0.667 µM): 73%
- target mRNA inhibition (SOD1; HepG2, 2 µM): 91%
- target mRNA inhibition (SOD1; HepG2, 6 µM): 88%

Sequence: ACATCCAAGGGAATGTT (sugars e3 k2 d7 k2 e3, PS)
- target mRNA inhibition (SOD1; HepG2, 3 µM): 30%

Sequence: ACATTTCTACAGCTAG (sugars ekddddddddekekee, linkages s1 o1 s8 o3 s2)
- target mRNA inhibition (SOD1; A431, 0.12 µM): 1%
- target mRNA inhibition (SOD1; A431, 0.6 µM): 27%
- target mRNA inhibition (SOD1; A431, 3 µM): 32%
- target mRNA inhibition (SOD1; A431, 15 µM): 47%

Sequence: ACCACAAGCCAAACGACTTC (sugars e5 d10 e5, PS)
- target mRNA inhibition (SOD1; HepG2, 5 µM): 28%

Sequence: ACCTTCACTGGTCCATT (sugars e3 k2 d7 k2 e3, PS)
- target mRNA inhibition (SOD1; HepG2, 3 µM): 44%

Sequence: ACTGGGCCGTCGCCCTTCAG (sugars e5 d10 e5, PS)
- target mRNA inhibition (SOD1; HepG2, 4 µM): 26%

Sequence: ACTTTATAGGCCAGACCTCC (sugars e5 d10 e5, PS)
- target mRNA inhibition (SOD1; HepG2, 4 µM): 64%

Sequence: ACTTTCCTTCTGCTCGA (sugars e3 k2 d7 k2 e3, PS)
- target mRNA inhibition (SOD1; HepG2, 3 µM): 0%

Sequence: ACTTTCTTCATTTCCAC (sugars e3 k2 d7 k2 e3, PS)
- target mRNA inhibition (SOD1; HepG2, 3 µM): 15%

Sequence: AGAAATTCTGACAAGTT (sugars e3 k2 d7 k2 e3, PS)
- target mRNA inhibition (SOD1; HepG2, 3 µM): 8%

Sequence: AGACTACATCCAAGGGA (sugars e3 k2 d7 k2 e3, PS)
- target mRNA inhibition (SOD1; HepG2, 3 µM): 39%

Sequence: AGAGGATTAAAGTGAGG (sugars e3 k2 d7 k2 e3, PS)
- target mRNA inhibition (SOD1; HepG2, 3 µM): 16%

Sequence: AGCAGTCACATTGCCCA (sugars e3 k2 d7 k2 e3, PS)
- target mRNA inhibition (SOD1; HepG2, 3 µM): 18%

Sequence: AGCTAGCAGGATAACAG (sugars e2 k2 d9 k2 e2, PS)
- target mRNA inhibition (SOD1; HepG2, 4 µM): 54%

Sequence: AGGACCTGCACTGGTAC (sugars e3 k2 d7 k2 e3, PS)
- target mRNA inhibition (SOD1; HepG2, 3 µM): 4%

Sequence: AGGATAACAGATGAGTT (sugars e2 k2 d9 k2 e2, PS)
- target mRNA inhibition (SOD1; HepG2, 0.1875 µM): 32%
- target mRNA inhibition (SOD1; HepG2, 0.75 µM): 62%
- target mRNA inhibition (SOD1; HepG2, 3 µM): 89%
- target mRNA inhibition (SOD1; HepG2, 4 µM): 86%
- target mRNA inhibition (SOD1; HepG2, 12 µM): 98%

Sequence: AGGTCATTGAAACAGAC (sugars e2 k2 d8 k2 e3, PS)
- target mRNA inhibition (SOD1; HepG2, 5 µM): 40%

Sequence: AGTCATCTGCTTTTTCA (sugars e3 k2 d7 k2 e3, PS)
- target mRNA inhibition (SOD1; HepG2, 3 µM): 76%

Sequence: AGTCTGGCAAAATACAG (sugars e3 k2 d7 k2 e3, PS)
- target mRNA inhibition (SOD1; HepG2, 3 µM): 1%

Sequence: TTCTAGACAGACCTAA (sugars k3 d10 k3, PS)
- target mRNA inhibition (MALAT1): 29%

Sequence: TTCTATAGTCTGAAGA (sugars k3 d10 k3, PS)
- target mRNA inhibition (MALAT1): 14%

Sequence: TTCTTAACAGCTTATG (sugars k3 d10 k3, PS)
- target mRNA inhibition (MALAT1): 21%

Sequence: TTCTTCGGTTAAAAAT (sugars k3 d10 k3, PS)
- target mRNA inhibition (MALAT1): 2%

Sequence: TTGACCTTAGGATAAT (sugars k3 d10 k3, PS)
- target mRNA inhibition (MALAT1): 47%

Sequence: TTGCACTCGCTCCTTC (sugars k3 d10 k3, PS)
- target mRNA inhibition (MALAT1): 33%

Sequence: TTGCAGGGACGGTTGA (sugars k3 d10 k3, PS)
- target mRNA inhibition (MALAT1): -10%

Sequence: TTGCTCACATGCCAGT (sugars k3 d10 k3, PS)
- target mRNA inhibition (MALAT1): 40%

Sequence: TTGGCACACTGGCATG (sugars k3 d10 k3, PS)
- target mRNA inhibition (MALAT1): 24%

Sequence: TTTAAAGTAGACCAAC (sugars k3 d10 k3, PS)
- target mRNA inhibition (MALAT1): -49%

Sequence: TTTAAATGACGCAATT (sugars k3 d10 k3, PS)
- target mRNA inhibition (MALAT1): 15%

Sequence: TTTAACTTCCCCCAGC (sugars k3 d10 k3, PS)
- target mRNA inhibition (MALAT1): -2%

Sequence: TTTAAGCCTTCGGTGC (sugars k3 d10 k3, PS)
- target mRNA inhibition (MALAT1): 13%

Sequence: TTTAATCATACTCCAG (sugars k3 d10 k3, PS)
- target mRNA inhibition (MALAT1): 24%

Sequence: TTTACCAACCACTCGC (sugars k3 d10 k3, PS)
- target mRNA inhibition (MALAT1): 18%

Sequence: TTTATCACTCAGCTGG (sugars k3 d10 k3, PS)
- target mRNA inhibition (MALAT1): 53%

Sequence: TTTCATCCTACCACTC (sugars k3 d10 k3, PS)
- target mRNA inhibition (MALAT1): 27%

Sequence: TTTGAAGCATACCTTA (sugars k3 d10 k3, PS)
- target mRNA inhibition (MALAT1): -1%

Sequence: TTTTAAAAAGGCTCGA (sugars k3 d10 k3, PS)
- target mRNA inhibition (MALAT1): 12%

Sequence: TTTTAAACGGGTCATC (sugars k3 d10 k3, PS)
- target mRNA inhibition (MALAT1): 17%

Sequence: TTTTAATCACCTTCGG (sugars k3 d10 k3, PS)
- target mRNA inhibition (MALAT1): 44%

Sequence: TTTTAGCAGTAACATC (sugars k3 d10 k3, PS)
- target mRNA inhibition (MALAT1): 34%
